The structures appear in SMILES notation.

One series concerns the target T1, human DGAT1 (Homo sapiens, UniProt O75907).
T1 construct: made in house; host or cells: insect cells (sf9, sf21 or High Five) infected with baculovirus; total cell membranes
T1 sequence (O75907 1-488): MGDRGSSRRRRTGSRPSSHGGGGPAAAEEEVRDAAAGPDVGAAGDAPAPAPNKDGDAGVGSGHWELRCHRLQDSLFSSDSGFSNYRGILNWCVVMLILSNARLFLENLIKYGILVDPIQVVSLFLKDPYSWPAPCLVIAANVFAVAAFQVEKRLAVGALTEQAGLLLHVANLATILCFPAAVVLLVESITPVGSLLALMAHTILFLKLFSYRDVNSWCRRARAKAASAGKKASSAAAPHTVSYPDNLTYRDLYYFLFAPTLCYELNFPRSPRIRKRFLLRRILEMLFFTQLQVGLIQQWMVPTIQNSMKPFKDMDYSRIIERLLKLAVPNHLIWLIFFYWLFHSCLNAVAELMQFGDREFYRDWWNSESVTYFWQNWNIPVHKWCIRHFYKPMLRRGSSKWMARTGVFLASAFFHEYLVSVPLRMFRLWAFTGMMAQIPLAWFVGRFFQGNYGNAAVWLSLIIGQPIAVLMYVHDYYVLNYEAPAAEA
Kind of series: DGAT Scintillation Proximity Assay (SPA) with membranes of insect cells expressing human flagtag DGAT1. The series is classed as biochemical. As to conditions: read-out: hDGAT1 IC50. As for the experimental part: In such an assay human DGAT1 is cloned from a human liver cDNA library. PCR is used to add a restriction site and flag epitope at the most 5′ end and a restriction site at the 3′ end of the sequence. Thereafter, human flagtag (FT) DGAT1 baculovirus may be generated using a Bac-to-Bac Baculovirus Expression System® (Invitrogen). Insect cells (e.g., sf9, sf2 1, or High Five) are infected for 24 to 72 h and collected by centrifugation. Cell pellets are resuspended in homogenization buffer and lysed using a homogenization device, such as a Microfluidizer. Total cell membranes are collected by ultracentrifugation at 45,000 rpm for 1 h.
A small aliquot (0.2 μg/well) of membrane is incubated with 10 μM compound or mercuric chloride (as positive control for inhibition) in the presence of enzyme substrate, dioleoyl glycerol (200 μM) in 384 well plates, final volume 50 gL per well. […] The reaction is stopped by adding Wheat Germ Agglutinin (WGA) SPA beads (0.2 mg) in mercuric chloride. Cell membranes are allowed to couple to the beads overnight. The signal can be measured using, for example, a Chemiluminescence Image Plate Reader (CLIPR) or TopCount device.
(In a scintillation proximity assay essentially only radioactivity close to the scintillant gives light.)

Regarding `CC(C)c1ccc(C2=Nc3c(N)ncnc3OC2)cc1` [Example 1-9], the melting point (commonly the temperature, or range, at which the solid turns liquid) was 176 to 178 °C. Moreover, at human DGAT1, the half-inhibitory concentration (IC50) (usually the concentration needed to halve the response being measured) was above 100 nM.
In the same order, the values of `Nc1ncnc2c1N=C(c1ccc(-c3ccccc3)cc1)CO2` [Example 1-11] are above 250 °C and above 100 nM.
In the same order, the values of `COc1ccc(C2=Nc3c(N)ncnc3OC2)cc1` [Example 1-12] are 191 to 193 °C and above 100 nM.
In the same order, the values of `Nc1ncnc2c1N=C(c1ccc([N+](=O)[O-])cc1)CO2` [Example 1-13] are above 250 °C and above 100 nM.
`Nc1cccc2c1N=C(c1ccc(Br)cc1)CO2` [Example 1-15] registered a melting point of 75 to 77 °C. Besides, the IC50 on human DGAT1 was above 100 nM.
`Nc1ncnc2c1N=C(c1ccccn1)CO2` [Example 1-16] displayed a melting point of 215 °C. The half-inhibitory concentration (IC50) on human DGAT1 is above 100 nM.
In the same order, the values of `Nc1ncnc2c1N=C(c1cccnc1)CO2` [Example 1-17] are above 220 °C and above 100 nM.
On the same counts, the results for `Nc1ncnc2c1N=C(c1ccncc1)CO2` [Example 1-18] are above 220 °C and above 100 nM.
In the same order, the values of `CCc1ccc(C2=Nc3c(N)ncnc3OC2)cc1` [Example 1-19] are 191 to 193 °C and above 100 nM.
In turn, `CCCc1ccc(C2=Nc3c(N)ncnc3OC2)cc1` [Example 1-20] yielded a melting point of 189 to 192 °C. The IC50 on human DGAT1 was above 100 nM.
On the same counts, the results for `CCCCc1ccc(C2=Nc3c(N)ncnc3OC2)cc1` [Example 1-21] are 183 to 186 °C and above 100 nM.
On the same counts, the results for `Nc1ncnc2c1N=C(C1CCCCC1)CO2` [Example 1-22] are 142 °C and above 100 nM.
The molecule `Nc1ncnc2c1N=C(c1ccc(OC(F)(F)F)cc1)CO2` [Example 1-23] showed a melting point of 209 to 212 °C. Also, on human DGAT1, the concentration for half-maximal inhibition (IC50) was above 100 nM.
The molecule `Nc1ncnc2c1N=C(c1ccc(C3CCCCC3)cc1)CO2` [Example 1-25] displayed a melting point of 219 to 221 °C. In addition, at human DGAT1, the IC50 is above 100 nM.
Turning to `Nc1nc(N)c2c(n1)OCC(c1ccc(Br)cc1)=N2` [Example 1-26], the melting point was above 220 °C. For the same molecule, the concentration for half-maximal inhibition (IC50) on human DGAT1 is above 100 nM.
In the same order, the values of `Nc1ncnc2c1N=C(c1ccc(Cl)c(Cl)c1)CO2` [Example 1-27] are above 220 °C and above 100 nM.
In the same order, the values of `Nc1ncnc2c1N=C(c1ccc(Cl)cc1Cl)CO2` [Example 1-28] are 218 to 220 °C and above 100 nM.
In the same order, the values of `Nc1nc(O)nc2c1N=C(c1ccc(Br)cc1)CO2` [Example 1-29] are above 220 °C and above 100 nM.
Molecule `CN(C)c1nc(N)c2c(n1)OCC(c1ccc(Br)cc1)=N2` [Example 1-30] registered a melting point above 220 °C. Further, the IC50 on human DGAT1 is above 100 nM.
For the molecule `Nc1ncnc2c1N=C(c1c(F)c(F)c(F)c(F)c1F)CO2` [Example 1-31], the melting point was 190 to 192 °C. Besides, on human DGAT1, the IC50 is above 100 nM.
The molecule `Cc1nc(N)c2c(n1)OCC(c1ccc(Br)cc1)N2` (stereo not shown) [Example 1-34] yielded a melting point of 232 to 233 °C. Further, the IC50 on human DGAT1 is above 100 nM.
Molecule `O=c1[nH]c2ncnc3c2n1C(c1ccc(Br)cc1)CO3` (stereo not shown) [Example 1-35] gave a melting point above 220 °C. Also, the half-maximal inhibitory concentration (IC50) at human DGAT1 is above 100 nM.
In the same order, the values of `Nc1ncnc2c1NC(c1ccc(Cl)c(Cl)c1)CO2` (stereo not shown) [Example 1-36] are 198 to 200 °C and above 100 nM.
For the molecule `Nc1ncnc2c1NC(c1ccc(Cl)cc1Cl)CO2` (stereo not shown) [Example 1-37], the melting point was above 220 °C. The IC50 on human DGAT1 is above 100 nM.
The molecule `CC1(C)Oc2ncnc(N)c2N=C1c1ccc([C@H]2CC[C@H](CCC(N)=O)CC2)cc1` [Example 2-5] gave a melting point of 244 to 246 °C. In addition, the IC50 on human DGAT1 lay within 10 to 100 nM.
As for `CC1(C)Oc2ncnc(N)c2NC1c1ccc([C@H]2CC[C@H](CCC(=O)O)CC2)cc1` (stereo partly shown) [Example 2-6], the melting point is above 250 °C. For the same molecule, at human DGAT1, the concentration for half-maximal inhibition (IC50) lay in the range of 10 to 100 nM.
On the same counts, the results for `CC1(C)Oc2ncnc(N)c2NC1c1ccccc1` (stereo not shown) [Example 2-8] are above 220 °C and above 100 nM.
As to `CC1(C)Oc2ncnc3[nH]c(=O)n(c23)C1c1ccc(Br)cc1` (stereo not shown) [Example 2-11], the melting point is above 220 °C. The IC50 on human DGAT1 is above 100 nM.
On the same counts, the results for `Nc1ncnc2c1N=C(c1ccc(Br)cc1)C1(CCCC1)O2` [Example 2-13] are 184 to 186 °C and above 100 nM.
Take `Nc1ncnc2c1NC(c1ccc(Br)cc1)C1(CCCC1)O2` (stereo not shown) [Example 2-14]: the melting point was 226 to 233 °C. Moreover, on human DGAT1, the IC50 is above 100 nM.
For `CC1(C)Oc2ncnc(N)c2NC1c1ccc(Cl)cc1` (stereo not shown) [Example 2-19], the melting point is above 230 °C. In addition, on human DGAT1, the IC50 is above 100 nM.
On the same counts, the results for `Cc1ccc(C2Nc3c(N)ncnc3OC2(C)C)cc1` (stereo not shown) [Example 2-20] are above 230 °C and above 100 nM.
`CC1(C)Oc2ncnc(N)c2NC1c1ccc(F)cc1` (stereo not shown) [Example 2-21] returned a melting point above 230 °C. The IC50 on human DGAT1 is above 100 nM.
In the same order, the values of `CC1(C)Oc2ncnc(N)c2NC1c1ccc(C2CCCCC2)cc1` (stereo not shown) [Example 2-22] are above 230 °C and above 100 nM.
For `COc1ccc(C2Nc3c(N)ncnc3OC2(C)C)cc1` (stereo not shown) [Example 2-24], the melting point is 225 to 226 °C. The IC50 at human DGAT1 was above 100 nM.
In turn, `Cc1nc(N)c2c(n1)OC(C)(C)C(c1ccc(C3CCCCC3)cc1)=N2` [Example 2-26] returned a melting point of 226 to 227 °C. Also, the 50% inhibitory concentration (IC50) on human DGAT1 was 10 to 100 nM.
Molecule `CC1(C)Oc2ncnc(N)c2N=C1c1ccc(-c2ccncc2)cc1` [Example 2-28] displayed a melting point above 250 °C. In addition, the IC50 on human DGAT1 is above 100 nM.
Take `CC1(C)Oc2ncnc(N)c2N=C1c1ccc(-c2cccnc2)cc1` [Example 2-29]: the melting point is 231 to 232 °C. For the same molecule, at human DGAT1, the half-inhibitory concentration (IC50) is above 100 nM.
As to `CN(C)c1ccc(-c2ccc(C3=Nc4c(N)ncnc4OC3(C)C)cc2)cc1` [Example 2-30], the melting point lay within 210 to 211 °C. The half-maximal inhibitory concentration (IC50) on human DGAT1 was above 100 nM.
With `CC1(C)Oc2ncnc(N)c2N=C1c1ccc(OC2CCCCC2)cc1` [Example 2-32], the melting point lay in the range of 174 to 175 °C. For the same molecule, the concentration for half-maximal inhibition (IC50) at human DGAT1 was above 100 nM.
On the same counts, the results for `CCOc1ccc(C2=Nc3c(N)ncnc3OC2(C)C)cc1` [Example 2-38] are 189 to 190 °C and above 100 nM.
In the same order, the values of `CCOC(=O)C=C1CCC(c2ccc(C3=Nc4c(N)ncnc4OC3(C)C)cc2)CC1` (stereo not shown) [Example 2-39] are 207 to 208 °C and above 100 nM.
On the same counts, the results for `CC1(C)Oc2ncnc(N)c2N=C1c1ccc(C2CCC(=CC(=O)O)CC2)cc1` (stereo not shown) [Example 2-40] are above 250 °C and below 10 nM.
`CC1CCC(c2ccc(C3=Nc4c(N)ncnc4OC3(C)C)cc2)CC1` (stereo not shown) [Example 2-41] had a melting point of 201 to 209 °C. Moreover, the IC50 at human DGAT1 is above 100 nM.
Consider `CC1(C)Oc2ncnc(N)c2N=C1c1ccc(C2CCC(=CC(=O)NCc3ccccc3)CC2)cc1` (stereo not shown) [Example 2-45], for which the melting point lay in the range of 142 to 144 °C. The half-inhibitory concentration (IC50) on human DGAT1 lay within 10 to 100 nM.
Molecule `CCNC(=O)C=C1CCC(c2ccc(C3=Nc4c(N)ncnc4OC3(C)C)cc2)CC1` (stereo not shown) [Example 2-47] had a melting point of 229 to 230 °C. For the same molecule, the IC50 at human DGAT1 lay in the range of 10 to 100 nM.
In the same order, the values of `CC(C)(C)OC(=O)CNC(=O)C=C1CCC(c2ccc(C3=Nc4c(N)ncnc4OC3(C)C)cc2)CC1` (stereo not shown) [Example 2-52] are 212 to 215 °C and 10 to 100 nM.
Take `CC1(C)Oc2ncnc(N)c2NC1c1ccc(-c2ccc(CC(=O)O)cc2)cc1` (stereo not shown) [Example 2-54]: the melting point was 267 °C (dec.). Moreover, at human DGAT1, the half-inhibitory concentration (IC50) lay within 10 to 100 nM.
On the same counts, the results for `CC1(C)Oc2ncnc(N)c2N=C1c1ccc([C@H]2CC[C@H](CNS(C)(=O)=O)CC2)cc1` [Example 2-58] are 251 to 252 °C and 10 to 100 nM.
On the same counts, the results for `CC1(C)Oc2ncnc(N)c2N=C1c1ccc([C@H]2CC[C@H](Cc3cc(O)[nH]n3)CC2)cc1` [Example 2-59] are above 250 °C and 10 to 100 nM.

Source of the values: patent US7244727B2, “Fused bicyclic nitrogen-containing heterocycles” (Japan Tobacco Inc., priority 2002, dated 2007).
